Publication PMC6158189, “A pharmacological probe identifies cystathionine β-synthase as a new negative regulator for ferroptosis” (Cell Death & Disease, 2018)

Columns and labels:
[1] = target: T1, hCBS-FL (Homo sapiens, UniProt P35520); test: H2S in HEK293T cells transiently expressing hCBS (AzMC probe); type: cell-based; details: 10 μM, 8 h
T1 sequence (P35520 1-551): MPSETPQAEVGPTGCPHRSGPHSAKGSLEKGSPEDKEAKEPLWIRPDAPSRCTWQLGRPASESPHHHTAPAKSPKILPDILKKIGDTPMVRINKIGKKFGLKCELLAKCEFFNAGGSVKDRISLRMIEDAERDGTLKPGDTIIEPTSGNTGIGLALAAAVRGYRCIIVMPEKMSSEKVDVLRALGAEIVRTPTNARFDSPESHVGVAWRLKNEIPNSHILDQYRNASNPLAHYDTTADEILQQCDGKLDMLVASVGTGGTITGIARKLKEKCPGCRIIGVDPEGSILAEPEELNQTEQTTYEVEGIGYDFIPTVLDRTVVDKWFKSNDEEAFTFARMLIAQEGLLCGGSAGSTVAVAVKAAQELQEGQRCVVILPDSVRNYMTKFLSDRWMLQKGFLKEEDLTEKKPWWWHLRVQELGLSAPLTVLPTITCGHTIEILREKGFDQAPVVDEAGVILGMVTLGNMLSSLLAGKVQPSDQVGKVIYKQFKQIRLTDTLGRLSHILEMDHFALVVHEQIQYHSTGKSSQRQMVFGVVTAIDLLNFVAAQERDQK
Procedure: HEK293T cells were transiently transfected with empty vector (EV, i and ii), hCBS-FL (iii and iv) or hCSE (v and vi) plasmids, followed by incubation with DMSO (i–iii and v) or 10 μM CH004 (iv and vi) for 8 h before staining with 50 μM AzMC, a H2S-specific probe (“Materials and Methods” section). For larger fluorescent and bright-field images, please see Supplementary Figure 4. The expression levels of hCBS or hCSE in HEK293T cells after transient transfections were determined by western blotting using an anti-CBS antibody (3E1, 1:2000; Abnova) or anti-CSE antibody (1:500, GeneTex). The densities of protein bands for hCBS or hCSE in the blots were quantified with the ImageJ software (National Institutes of Health, Bethesda, MD, USA) and expressed as ratios of respective control (EV group). […] The fluorescent images of the H2S (blue) were accordingly quantified (“Materials and Methods” section) with ImageJ. […] A representative fluorescence image from three independent experiments is shown. […]
H2S levels in living cells were detected using a H2S-specific fluorescent probe according to a protocol described previously[31],[55]. […] After incubation with 50 μM AzMC at 37 °C for 30 min, the cells were washed 4 times with PBS, and the fluorescent images were recorded with excitation by 405 nm laser by using a A1Si (Nikon) confocal microscope. […]

[2] = target: T2, hCBS-FL wild type (293T-CBS WT) (Homo sapiens, UniProt P35520); test: H2S in HEK293T cells stably expressing hCBS WT (AzMC probe); type: cell-based; details: 8 h, 293T-CBS WT
T2 construct: human CBS or hCSE full-length (CBS-FL or CSE) was subcloned into pGEX-KG, pcDNA3 or pCDH vector; expressed in transfected cells
T2 sequence (P35520 1-551): T1 sequence (P35520 1-551)
Procedure: HEK293T cells were transiently transfected with empty vector (EV, i and ii), hCBS-FL (iii and iv) or hCSE (v and vi) plasmids, followed by incubation with DMSO (i–iii and v) or 10 μM CH004 (iv and vi) for 8 h before staining with 50 μM AzMC, a H2S-specific probe (“Materials and Methods” section). For larger fluorescent and bright-field images, please see Supplementary Figure 4. The expression levels of hCBS or hCSE in HEK293T cells after transient transfections were determined by western blotting using an anti-CBS antibody (3E1, 1:2000; Abnova) or anti-CSE antibody (1:500, GeneTex). The densities of protein bands for hCBS or hCSE in the blots were quantified with the ImageJ software (National Institutes of Health, Bethesda, MD, USA) and expressed as ratios of respective control (EV group). All immunoblots are representative of at least two independent experiments using GAPDH as the loading control. The fluorescent images of the H2S (blue) were accordingly quantified (“Materials and Methods” section) with ImageJ. […] The DMSO groups of the controls (CTR), which are expressing of hCBS or hCSE, were normalized to 100% and the levels of H2S in CH004-treated or EV group are shown as relative percentages. c, d CH004 dose-dependently suppresses the activity of hCBS WT without affecting the activity of CH004-insensitive mutant. HEK293T cells stably expressing EV (i and ii), hCBS-FL wild type (293T-CBS WT; iii–v) or CBS-FL mutant (293T-CBS Q222A, vi–viii) were treated with DMSO (i–iii and vi), 5 μM CH004 (iv, vii) or 10 μM CH004 (v, viii) for 8 h before staining with the AzMC. For larger fluorescent and bright-field images, please see Supplementary Figures 5–6. […] The DMSO groups of the controls (CTR), which are expressing of hCBS-FL wt or Q222A mutant, were normalized to 100% and the levels of H2S in CH004-treated or EV group are shown as relative percentages. A representative fluorescence image from three independent experiments is shown. Means ± SDS (n = 3). Statistical analyses were performed on the raw data for each group by one-way (b) or two-way (d) ANOVA with Bonferroni post-tests. ***p < 0.001. Bars, 50 μm
H2S levels in living cells were detected using a H2S-specific fluorescent probe according to a protocol described previously[31],[55]. To measure H2S in transiently transfected HEK293T cells, the cells were seeded on poly-D-Lys-coated coverslips (Thermo Scientific, Waltham, MA, USA) in 12-well plates at a density of ~ 1 × 10^5 cells per well, and hCBS or hCSE plasmids were transiently transfected by X-tremeGENE HP DNA Transfection Reagent according to the manufacturer’s protocol (Roche, Basel, Switzerland). […] After incubation with 50 μM AzMC at 37 °C for 30 min, the cells were washed 4 times with PBS, and the fluorescent images were recorded with excitation by 405 nm laser by using a A1Si (Nikon) confocal microscope. The intensity of the blue fluorescent signals, indicating the amount of H2S, was quantified by ImageJ software (NIH, Bethesda, ML). The H2S signal was then corrected for the background signal detected in HEK293T cells transiently or stably expressing of empty vector (HEK293T-EV) and normalized by the corresponding cell-occupying area and compared with the control (DMSO group, 100%). Similarly, the H2S signal in HepG2 cells was quantified by AzMC staining, corrected for the background signal outside the cells, normalized by the cell area and expressed as percentages of DMSO control (100%). […]

Structure (SMILES): Cn1nc(Cc2ccccc2)nc2c(=O)n(C)c(=O)nc1-2 [CH004, 3-benzyl-1,6-dimethylpyrimido[5,4-e][1,2,4]triazine-5,7(1H,6H)-dione]
- decrease in H2S [1]: ~ 50%
- decrease in H2S ([2]; 5 μM): 22%
- decrease in H2S ([2]; 10 μM): 43%
